Patent publication US5393779A, “Chemical compounds” (Zeneca Limited, priority 1991, dated 1995)

What was measured:
[1] = system: brown adipose tissue (BAT) mitochondria; experiment: Test (a): GDP binding in BAT mitochondria of cold-adapted rats as a measure of thermogenic activation; assay type: in vivo; conditions: BAT removed one hour after dosing; for ED50: Rattus norvegicus, 1 h, oral, relative to isoprenaline 1 mgkg^-1, read-out: oral ED50 (dose producing 50% of the isoprenaline effect on GDP binding)
Method: (a) Rats are cold adapted at 4° C. for 5 days to increase their capacity for thermogenesis. They are then transferred to a warm environment of 25° C. for 2 days. On the following day, a test compound is administered sub-cutaneously or orally. Animals are sacrificed one hour later and the interscapular, brown adipose tissue (BAT) pad is removed. BAT mitochondria are prepared by differential centrifugation and GDP binding is determined (Holloway et al., International Journal of Obesity, 1984, 8, 295) as a measure of thermogenic activation. Each test includes a control which is dosed with the solution/suspension vehicle only and a positive control which is dosed with isoprenaline (as its sulphate) at 1 mgkg^-1. Test compounds are routinely dosed at 0.1, 0.3, 1.0, 3.0, and 10 […] and results expressed in terms of the effect on GDP binding produced by the positive control. […] Compounds are considered active in this test if they cause a significant elevation in GDP binding as compared to controls.

[2] = system: rat adipocytes; experiment: Rat adipocyte lipolysis test; assay type: cell-based, rats; conditions: 1.5 h, rat epididymal adipocytes, 90 minutes, free fatty acids, isoprenaline 3×10^-6 M, read-out: Efficacy (maximal effect on lipolysis as a percentage of the maximal effect of isoprenaline)
Method: Epididymal adipose tissue was excised from male rats and adipocytes prepared by digestion with collagenase. Cells were isolated by flotation and washed four times with Krebs Ringer Bicarbonate buffer (KRB), finally washing in KRB containing 2% bovine serum albumin (KRB/BSA). Aliquots of the cell suspension were incubated in the presence of a range of concentrations of the test compound in a total volume of 1 ml KRB/2% BSA containing 0.1 mg/ml ascorbate in an atmosphere of 95%O2,5%CO2. Incubations were also carried out in the presence of a concentration of isoprenaline (3×10^-6 M) known to have a maximal effect on lipolysis. Control incubations were carried out in KRB/2% BSA containing ascorbate. The incubations were terminated after 90 minutes by placing the tubes on ice, and aliquots of infranatant removed for assay of free fatty acids which were measured using a WAKO NEFA-C assay kit (Alpha Laboratories). Lipolytic activity of the compounds was assessed by determining the increase in free fatty acid concentrations caused by the compounds compared to controls. The maximal effects (efficacy) of the compounds were determined and expressed as percentage of the maximal effect of isoprenaline.
Efficacy is the maximal effect of the test compound on lipolysis expressed as a percentage of the maximal effect of isoprenaline.

[3] = system: Male rats; experiment: Oral glucose tolerance test; assay type: in vivo; conditions: for Plasma glucose: 5 mg/Kg p.o., mean±S.E.M., six rats
Method: Male rats (125-150 g) were fasted for 24 hours. After fasting, a group of six rats was anaesthetised and a cardiac blood sample taken. Other groups of rats were then dosed with the compound of Example 1 (5.0 mg/Kg p.o.) dissolved in an aqueous solution of 0.025% polysorbate. Control rats were dosed with polysorbate solution alone. The volume of solution dosed was 0.5 ml/100 g body weight. 60 minutes subsequent to dosing six control and six treated rats were anaesthetised and cardiac samples taken. The remaining rats were given an oral glucose load (1 g/Kg) dosed as a 20% solution of D-glucose (0.5 ml/100 g). Groups of six rats for each control and treatment were then anaesthetised and bled at 20, 60 and 120 minutes after the glucose load. Plasma glucose and insulin were determined using standard methods.
The results are mean±S.E.M. of observations in six rats in each group. Student's t test was used to test the significance of the difference between control and treated groups.

[4] = system: Rats; experiment: Test (c): metabolic rate by closed-circuit oxygen consumption in rats; assay type: in vivo; conditions: 1mgkg^-1 p.o.
Method: (c) Rats are kept at 23° C. for at least two days, then fasted overnight. On the following day, the basal metabolic rate of the animals is determined using a close-circuit oxygen consumption apparatus of the type described by Arundel et al., 1984, J. Appl. Physiol. Respirat. Environ. Exercise Physiol., 1984, 57 (5) 1591-1593. The rats are then dosed (orally) with test compound at about 1 mgkg^-1 as a solution or suspension in 0,025% w/v Polysorbate 80 (0.5 ml/100 g). Metabolic rate is then determined for at least one hour after dosing. Compounds are considered active in this test if they cause a significant increase in metabolic rate as compared to control animals (Student's t test: p <0.05) dosed only the solution or suspension vehicle.

[5] = system: C57BL/KsJ (db/db) mice; experiment: Effects on blood glucose levels in insulin resistant db/db mice; assay type: in vivo; conditions: 50 mg/kg diet
Method: Effects on blood glucose levels in insulin resistant db/db mice C57BL/KsJ (db/db) mice were divided into two groups and allowed free access to control diet or diet containing the compound of Example 1 at a concentration of 50 mg/kg diet. A group of control (+/+) mice was also included in the experiment. After 16 days treatment, blood samples were taken from the mice for determination of blood glucose levels.
Results are mean±S.E.M. of observations in groups of 15 mice. Student's t test was used to test the significance of the difference between control (+/+) and treated (db/db) groups.

[6] = system: Rats; experiment: Test (b): heart rate in rats, D500 dose and selectivity index (SI); assay type: in vivo
Method: (b) Rats are adapted to a thermoneutral environment (29° C.) for 2 weeks in order to decrease their capacity for BAT mediated non-shivering thermogenesis. During the final 5 days the animals are trained to use an apparatus for measuring heart rate non-invasively via foot-pad electrodes connected to an ECG integrator giving a continuous read-out of heart rate. A test compound is administered sub-cutaneously or orally at the ED50 determined in test (a), and heart rate is determined 15-30 minutes after dosing. The procedure is then repeated in subsequent tests using increasing multiples of the ED50 determined in test (a) until the heart rate (HR) reaches or exceeds 500 beats per minute, or until the dose reaches 100 times the ED50 determined in test (a). The dose necessary to produce a heart rate of 500 beats per minute (D500 dose) is estimated.
The ratio of D500 to ED50 in test (a) can be defined as the selectivity index (SI) and provides a measure of the selectivity of the compound for BAT as opposed to the cardiovascular system.

O=C(O)COc1ccc(OCCNCC(O)c2ccccc2)cc1 (stereo not drawn) [4-[2-(2-Hydroxy-2-phenylethylamino)-ethoxy]phenyloxyacetic acid, reference compound]
ED50 [1]: > 3 mg/kg

O=C(O)COc1ccc(OCCNCC(O)COc2ccccc2)cc1 (stereo not drawn) [4-[2-(2-Hydroxy-3-phenoxypropylamino)-ethoxy]phenoxyacetic acid, reference compound]
Emax [2]: 26%

O=C(O)Cc1ccc(OCCNC[C@H](O)c2ccccc2)cc1 [Example 1, (R)-4-[2-(2-Hydroxy-2-phenylethylamino)ethoxy]phenylacetic acid]
Plasma glucose ([3]; 0 mins relative to oral glucose load): 3.52 ± 0.07 mM | Plasma glucose ([3]; 20 mins after oral glucose load (1 g/Kg)): 5.72 ± 0.24 mM | Plasma glucose ([3]; 60 mins after oral glucose load (1 g/Kg)): 5.32 ± 0.24 mM | Plasma glucose ([3]; 120 mins after oral glucose load (1 g/Kg)): 5.43 ± 0.31 mM | antihyperglycaemic activity (in words) ([3]; 5.0 mg/Kg p.o., rats): marked antihyperglycaemic activity | metabolic rate (oxygen consumption) [4]: 6.53 ml O2 min^-l (Kg^O.75) | Emax [2]: 100% | effect on blood glucose levels (in words) ([5]; 16 days): normalises blood glucose levels | Blood glucose ([5]; after 16 days treatment, mean±S.E.M., 15 mice): 5.3 ± 0.46 mM | SI (selectivity index, ratio of D500 to ED50 in test (a)) ([6]; oral): > 50 | oral ED50 (dose producing 50% of the isoprenaline effect on GDP binding) ([1]; relative to isoprenaline 1 mgkg^-1): 0.55 mgkg^-1 | ED50 [1]: 0.55 mg/kg

CC(C)NCC(O)c1ccc(O)c(O)c1 (stereo not drawn) [isoprenaline, reference compound]
SI (selectivity index, ratio of D500 to ED50 in test (a)) ([6]; route not stated): 0.06
